The values that follow come from ChEMBL document CHEMBL1152842, “Synthesis, Raman, FT-IR, NMR spectroscopic data and antimicrobial activity of mixed aza-oxo-thia macrocyclic compounds” (2009).

Format in all cases: functional
The test system of assay [1] is Candida albicans. Kind of assay: Antifungal activity against Candida albicans ATCC 10231 at 10 ug after 72 hrs by disk diffusion method. The following applies: ATCC 10231, 72 h, read-out: IZ. A general note: In agar diffusion tests the substance spreads into inoculated agar from a disc or well.
In assay [2] the test system is Kluyveromyces marxianus. Kind of assay: Antifungal activity against Kluyveromyces fragilis NRRL 2415 at 10 ug after 72 hrs by disk diffusion method. The following applies: NRRL 2415, 72 h, read-out: IZ.
Assay [3] has as its system Rhodotorula mucilaginosa. Kind of assay: Antifungal activity against Rhodotorula rubra DSM 70403 at 10 ug after 72 hrs by disk diffusion method. The note with it: DSM 70403, 72 h, read-out: IZ.
The subject of assay [4] is Hanseniaspora guilliermondii. Kind of assay: Antifungal activity against Hanseniaspora guilliermondii DSM 3432 at 10 ug after 72 hrs by disk diffusion method. The note with it: DSM 3432, 72 h, read-out: IZ.
Assay [5] has as its system Debaryomyces hansenii. Kind of assay: Antifungal activity against Debaryomyces hansenii DSM 70238 at 10 ug after 72 hrs by disk diffusion method. The note with it: DSM 70238, 72 h, read-out: IZ.
The test system of assay [6] is Candida albicans. Kind of assay: Antifungal activity against Candida albicans ATCC 10231 at 1 ug after 72 hrs by disk diffusion method. The following applies: ATCC 10231, 72 h, read-out: IZ.
Assay [7] deals with Kluyveromyces marxianus. Kind of assay: Antifungal activity against Kluyveromyces fragilis NRRL 2415 at 1 ug after 72 hrs by disk diffusion method. The note with it: NRRL 2415, 72 h, read-out: IZ.
Assay [8] deals with Rhodotorula mucilaginosa. Kind of assay: Antifungal activity against Rhodotorula rubra DSM 70403 at 1 ug after 72 hrs by disk diffusion method. The note with it: DSM 70403, 72 h, read-out: IZ.
Assay [9] has as its system Hanseniaspora guilliermondii. Kind of assay: Antifungal activity against Hanseniaspora guilliermondii DSM 3432 at 1 ug after 72 hrs by disk diffusion method. The following applies: DSM 3432, 72 h, read-out: IZ.
The test system of assay [10] is Debaryomyces hansenii. Kind of assay: Antifungal activity against Debaryomyces hansenii DSM 70238 at 1 ug after 72 hrs by disk diffusion method. The note with it: DSM 70238, 72 h, read-out: IZ.
In assay [11] the test system is Escherichia coli. Kind of assay: Antibacterial activity against Escherichia coli ATCC 11230 at 5 ug after 24 hrs by disk diffusion method. The following applies: ATCC 11230, 24 h, read-out: IZ.
Assay [12] deals with Staphylococcus aureus. Kind of assay: Antibacterial activity against Staphylococcus aureus ATCC 6538 at 5 ug after 24 hrs by disk diffusion method. The following applies: ATCC 6538, 24 h, read-out: IZ.
Assay [13] concerns Klebsiella pneumoniae. Kind of assay: Antibacterial activity against Klebsiella pneumoniae UC57 at 5 ug after 24 hrs by disk diffusion method. The following applies: read-out: IZ.
Assay [14] concerns Pseudomonas aeruginosa. Kind of assay: Antibacterial activity against Pseudomonas aeruginosa ATCC 27853 at 5 ug after 24 hrs by disk diffusion method. The note with it: ATCC 27853, 24 h, read-out: IZ.
The test system of assay [15] is Proteus vulgaris. Kind of assay: Antibacterial activity against Proteus vulgaris ATCC 8427 at 5 ug after 24 hrs by disk diffusion method. The note with it: ATCC 8427, 24 h, read-out: IZ.
Assay [16] relates to Bacillus cereus. Kind of assay: Antibacterial activity against Bacillus cereus ATCC 7064 at 5 ug after 24 hrs by disk diffusion method. The note with it: ATCC 7064, 24 h, read-out: IZ.
Assay [17] concerns Mycolicibacterium smegmatis. Kind of assay: Antibacterial activity against Mycobacterium smegmatis CCM 2067 at 5 ug after 24 hrs by disk diffusion method. The note with it: CCM 2067, 24 h, read-out: IZ.
The subject of assay [18] is Listeria monocytogenes. Kind of assay: Antibacterial activity against Listeria monocytogenes ATCC 15313 at 5 ug after 24 hrs by disk diffusion method. The note with it: ATCC 15313, 24 h, read-out: IZ.
Assay [19] concerns Micrococcus luteus. Kind of assay: Antibacterial activity against Micrococcus luteus La 2971 at 5 ug after 24 hrs by disk diffusion method. The note with it: read-out: IZ.
Assay [20] deals with Escherichia coli. Kind of assay: Antibacterial activity against Escherichia coli ATCC 11230 at 30 ug after 24 hrs by disk diffusion method. The following applies: ATCC 11230, 24 h, read-out: IZ.
Assay [21] relates to Staphylococcus aureus. Kind of assay: Antibacterial activity against Staphylococcus aureus ATCC 6538 at 30 ug after 24 hrs by disk diffusion method. The following applies: ATCC 6538, 24 h, read-out: IZ.
In assay [22] the test system is Klebsiella pneumoniae. Kind of assay: Antibacterial activity against Klebsiella pneumoniae UC57 at 30 ug after 24 hrs by disk diffusion method. The following applies: read-out: IZ.
Assay [23] concerns Pseudomonas aeruginosa. Kind of assay: Antibacterial activity against Pseudomonas aeruginosa ATCC 27853 at 30 ug after 24 hrs by disk diffusion method. The note with it: ATCC 27853, 24 h, read-out: IZ.
For assay [24], the system named is Proteus vulgaris. Kind of assay: Antibacterial activity against Proteus vulgaris ATCC 8427 at 30 ug after 24 hrs by disk diffusion method. The following applies: ATCC 8427, 24 h, read-out: IZ.
Assay [25] deals with Bacillus cereus. Kind of assay: Antibacterial activity against Bacillus cereus ATCC 7064 at 30 ug after 24 hrs by disk diffusion method. The note with it: ATCC 7064, 24 h, read-out: IZ.
The subject of assay [26] is Mycolicibacterium smegmatis. Kind of assay: Antibacterial activity against Mycobacterium smegmatis CCM 2067 at 30 ug after 24 hrs by disk diffusion method. The following applies: CCM 2067, 24 h, read-out: IZ.
Assay [27] deals with Listeria monocytogenes. Kind of assay: Antibacterial activity against Listeria monocytogenes ATCC 15313 at 30 ug after 24 hrs by disk diffusion method. The note with it: ATCC 15313, 24 h, read-out: IZ.
The subject of assay [28] is Micrococcus luteus. Kind of assay: Antibacterial activity against Micrococcus luteus La 2971 at 30 ug after 24 hrs by disk diffusion method. The following applies: read-out: IZ.

Structures are written as SMILES.

With `Clc1ccccc1C(c1ccccc1)(c1ccccc1)n1ccnc1` [CLOTRIMAZOLE], the zone of inhibition at 10 µg/disc in the assay on Candida albicans [1] was found to be 18 mm; with Kluyveromyces marxianus [2], 16 mm; with Rhodotorula mucilaginosa [3], 15 mm; in assay [4] it was 22 mm; in the assay with Debaryomyces hansenii [5], 18 mm.

In the case of `CC(=O)N1CCN(c2ccc(OCC3COC(Cn4ccnc4)(c4ccc(Cl)cc4Cl)O3)cc2)CC1` (stereo not drawn) [KETOCONAZOLE], the zone of inhibition at 1 µg/disc turned out to be 16 mm with Candida albicans [6]; 22 mm in the assay with Kluyveromyces marxianus [7]; 21 mm in the assay with Rhodotorula mucilaginosa [8]; 24 mm in assay [9]; 14 mm with Debaryomyces hansenii [10].

With `CC1COc2c(N3CCN(C)CC3)c(F)cc3c(=O)c(C(=O)O)cn1c23` (stereo not drawn) [OFLOXACIN], the zone of inhibition at 5 µg/disc with Escherichia coli [11] worked out at 30 mm; in the assay with Staphylococcus aureus [12], 24 mm; in the assay on Klebsiella pneumoniae [13] it was 28 mm; in the assay on Pseudomonas aeruginosa [14] it was 30 mm; with Proteus vulgaris [15], 28 mm; in the assay with Bacillus cereus [16], 28 mm. Also, the zone of inhibition at 5 µg/disc in assay [17] is 32 mm; with Listeria monocytogenes [18] it was 30 mm; in the assay with Micrococcus luteus [19], 44 mm.

For the compound `CN(C)[C@@H]1C(O)=C(C(N)=O)C(=O)[C@@]2(O)C(O)=C3C(=O)c4c(O)cccc4[C@@](C)(O)[C@H]3C[C@@H]12` [TETRACYCLINE], the zone of inhibition at 30 µg/disc worked out at 28 mm with Escherichia coli [20]; 26 mm with Staphylococcus aureus [21]; 30 mm in the assay on Klebsiella pneumoniae [22]; 25 mm in the assay on Pseudomonas aeruginosa [23]; 22 mm in the assay on Proteus vulgaris [24]; 26 mm in the assay on Bacillus cereus [25]. Also, the zone of inhibition at 30 µg/disc in [26] came to 24 mm; with Listeria monocytogenes [27], 28 mm; in the assay on Micrococcus luteus [28] it was 34 mm.
